According to patent US20110082177A1, “N'-NITROXYALKYLNICOTINAMIDES FOR THE TREATMENT OF CARDIOVASCULAR DISEASES” (priority 2008, published 2011):

What was measured:
[1] = Binding to heparin, radiation method (pulse radiolysis); settings: water-soluble heparin 10 μM
Description: The experiment consisted in studying the effect of the presence of heparin on the observed rate of scavenging the hydrated electron by the MNIC^+ cation. The studies were carried out by pulse radiolysis, using an Elektronika ELU-6E linear electron accelerator (at the Institute of Applied Radiation Chemistry, Technical University of Lodz, Poland) having an electron beam energy of 6-8 MeV, as an ionising-radiation source. A solution of water-soluble heparin at a concentration of 10 μM was used in the experiment. […]
Based on the recorded kinetic traces of decay of the hydrated electron in the presence of the MNIC^+Cl^− solutions at various concentrations, the values of the pseudo-first order rate constants were determined. The value of the second-order rate constant for the investigated reaction was determined from the slope of the linear dependence of the above-determined rate constants versus concentration. […] Then, based on the determined second-order reaction rate constant and the observed rate constant for decay of the hydrated electron in the presence of heparin and MNIC^+, the degree of binding of the tested compound to heparin was determined using the following relationship: […]

[2] = Binding to heparin, absorption method; settings: compound 100 μM, heparin immobilised on Sepharose 25 mg/ml
Description: The absorption method consisted in comparing the absorption spectrum of an aqueous solution of the tested compound with the absorption spectrum of the same solution after its incubation with Sepharose immobilised heparin as a glycosaminoglycan mimicking the glycosaminoglycan receptor. The absorption spectra were recorded using a Perkin Elmer Lambda 40 spectrophotometer. The following reagents were prepared prior to the experiment: an aqueous solution of the tested compound of Example 1, namely 1-methyl-N′-(2-nitroxyethyl)nicotinamide chloride (MNIC^+Cl^−), at a concentration of 100 μM, an aqueous suspension of heparin immobilised on Sepharose at 25 mg/ml, and a solution of MNIC^+Cl^− in an aqueous suspension of heparin having the same concentrations in both the tested compound and heparin as mentioned above. Following the initial incubation of the solution of the tested compound with heparin, it was centrifuged for 6 minutes at 13,000 rpm. Then supernatant solutions above the precipitate of heparin were separated and the spectra of the solutions were recorded at the wavelength range of 200-600 nm.
The degree of binding of MNIC^+ to heparin was determined by calculating the areas under the absorption curves of the compound before and after contact with heparin, using the following relationship: […]

[3] = Ability to release NO by EPR method; settings: preliminary investigations
Description: Preliminary investigations of the ability of MNIC^+Cl^− to release NO were also performed using EPR (Electron Paramagnetic Resonance) method. The results of these studies confirmed that MNIC^+Cl^− releases NO, and most likely the vasodilating activity of the compound is a consequence of the stimulation of sGC by NO thus released.

[4] = Scavenging of the hydrated electron by pulse radiolysis; type: physicochemical; settings: no heparin added, λ=720 nm
Description: The experiment consisted in studying the effect of the presence of heparin on the observed rate of scavenging the hydrated electron by the MNIC^+ cation. The studies were carried out by pulse radiolysis, using an Elektronika ELU-6E linear electron accelerator (at the Institute of Applied Radiation Chemistry, Technical University of Lodz, Poland) having an electron beam energy of 6-8 MeV, as an ionising-radiation source. A solution of water-soluble heparin at a concentration of 10 μM was used in the experiment. […] Based on the recorded kinetic traces of decay of the hydrated electron in the presence of the MNIC^+Cl^− solutions at various concentrations, the values of the pseudo-first order rate constants were determined. The value of the second-order rate constant for the investigated reaction was determined from the slope of the linear dependence of the above-determined rate constants versus concentration. […] Then, based on the determined second-order reaction rate constant and the observed rate constant for decay of the hydrated electron in the presence of heparin and MNIC^+, the degree of binding of the tested compound to heparin was determined using the following relationship: […]

[5] = system: soluble guanyl cyclase (sGC); experiment: Effect of sGC inhibitor ODQ on vasodilatating activity in isolated rat aortal rings
Description: (§1) The vasodilating effect of MNIC^+Cl^− in aqueous solutions on isolated rat aorta was studied in the conditions close to physiological ones. 3-5 mm aortal rings with preserved endothelial function placed in a set of 6 containers a 5 ml containing the Krebs-Henseleit buffer constantly aerated with 5% CO2 in O2 and thermostated at 37° C. were suspended between two hooks connected to the force transducer for recording the ring contraction. Then, following the constriction induced by phenylephrine, the concentration-dependent vasodilating effect of MNIC^+Cl^− was investigated by measurement of relaxation of phenylephrine contracted aortal rings.
(§2) The experiments explaining the mechanisms responsible for vasodilation induced by MNIC^+Cl^− were carried out in the same system of isolated vascular vessels. In order to determine the contribution of sGC and KATP channels in the vasodilating activity of the compound, the effects of an inhibitor of ATP-dependent potassium channels—glibenclamide (GLB) at a concentration of 10 μM, and an inhibitor of soluble guanyl cyclase (sGC) 1H-[1,2,4]-oxadiazole[4,3-a]quinoxalin-1-one (ODQ) at a concentration of 10 μM on this vasodilating activity were investigated in two set of experiments. In these experiments, MNIC^+Cl^− was used at the concentrations causing about 80-90% vasodilation, as determined in the experiment described above. […]

isolated rat aorta = experiment: Vasodilating effect on phenylephrine contracted isolated rat aortal rings; settings: isolated rat aorta with preserved endothelial function; concentrations range from tens to hundreds μmol/l
Description: as §1

[6] = system: ATP-dependent potassium channels; experiment: Effect of potassium channel inhibitor GLB on vasodilatating activity in isolated rat aortal rings
Description: as §1, §2

SMILES: C[n+]1cccc(C(N)=O)c1 [1-methylnicotinamide, reference compound]
- degree of binding to heparin [1]: 39%
- degree of binding to heparin [2]: 50%

SMILES: C[n+]1cccc(C(=O)NCCO[N+](=O)[O-])c1.[Cl-] [MNIC^+Cl^−, 1-Methyl-N′-(2-nitroxyethyl)nicotinamide chloride]
- degree of binding to heparin [1]: 47%
- degree of binding to heparin [2]: 30%
- ability to release NO [3]: releases NO
- second-order rate constant for the reaction of hydrated electron with the MNIC+ cation [4]: 4.17e+10 to 1e+11 M⁻¹ s⁻¹
- effect of further addition of ODQ after GLB pre-incubation on vasodilatating activity ([5]; ODQ 10 μM added after GLB 10 μM): inhibition of vasodilatating activity
- effect of pre-incubation with ODQ on vasodilatating activity ([5]; ODQ 10 μM, MNIC+Cl− at concentrations causing about 80-90% vasodilation): inhibited vasodilatating activity
- vasodilating activity (relaxation of phenylephrine contracted aortal rings) (isolated rat aorta): concentration-dependent vasodilating activity
- effect of addition of GLB after ODQ pre-incubation on reversal of the ODQ effect ([6]; GLB 10 μM added after ODQ 10 μM): no further influence
- effect of pre-incubation with GLB on vasodilatating activity ([6]; GLB 10 μM, MNIC+Cl− at concentrations causing about 80-90% vasodilation): had no influence
